Test results taken from paper PMC13266984 (Journal of medicinal chemistry, 2026).
Where “and” joins values, the source holds several entries; their conditions need not be identical. Equal values may be shown once.

How the values were obtained:
Human ALDH3A1 = molecular target: T1, Human ALDH3A1 (Homo sapiens, UniProt P30838); experiment: ALDH3A1 biochemical assay (benzaldehyde/NADP+, diaphorase-resazurin readout, 1,536-well)
T1 sequence (P30838 1-453): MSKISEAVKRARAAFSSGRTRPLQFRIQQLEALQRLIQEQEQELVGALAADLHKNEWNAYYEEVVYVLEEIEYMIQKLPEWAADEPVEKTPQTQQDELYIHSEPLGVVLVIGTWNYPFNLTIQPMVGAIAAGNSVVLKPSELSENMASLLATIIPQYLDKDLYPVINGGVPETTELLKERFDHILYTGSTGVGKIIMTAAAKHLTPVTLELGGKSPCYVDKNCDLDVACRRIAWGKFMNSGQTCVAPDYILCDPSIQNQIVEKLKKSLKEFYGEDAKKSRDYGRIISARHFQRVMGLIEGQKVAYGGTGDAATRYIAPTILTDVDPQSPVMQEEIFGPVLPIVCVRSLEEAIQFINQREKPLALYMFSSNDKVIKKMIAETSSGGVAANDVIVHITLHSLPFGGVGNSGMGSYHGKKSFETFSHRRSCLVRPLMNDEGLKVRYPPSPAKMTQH

OE19 (3A1) = molecular target: T2, OE19 (3A1) (Homo sapiens, UniProt P30838); experiment: Cellular ALDEFLUOR assay in OE19 cells (preferential ALDH3A1 expression)
T2 sequence (P30838 1-453): T1 sequence (P30838 1-453)

[1] = Table S4, biochemical curve class
[2] = Table S5, biochemical curve class
[3] = Table S1, primary screen, curve class

Row | Structure (SMILES) | AC50 (Human ALDH3A1) | IC50 (Human ALDH3A1; ALDH3A1 biochemical IC50) | Efficacy (Human ALDH3A1; Table S4, biochemical) | CC-v2 (Human ALDH3A1; [1]) | AC50 (OE19 (3A1)) | Cell_Efficacy (OE19 (3A1); Table S4, OE19 cells) | Cell_CC-v2 (OE19 (3A1); Table S4, cellular curve class) | IC50 (OE19 (3A1); cellular IC50 (Aldefluor), OE19 cells) | activity in the biochemical assay (Human ALDH3A1; in words) | Efficacy (Human ALDH3A1; Table S5, biochemical) | CC-v2 (Human ALDH3A1; [2]) | Cell_Efficacy (OE19 (3A1); Table S5, OE19 cells) | Cell_CC-v2 (OE19 (3A1); Table S5, cellular curve class) | Efficacy (Human ALDH3A1; Table S1, primary screen) | CC-v2 (Human ALDH3A1; [3])
1 | Cc1cccc(CNC(=O)c2csc(N3CCN(c4cccc(C(F)(F)F)c4)CC3)n2)c1 [Compound 5] | 230 nM | 230 nM and 229 nM | -100.07 | -1.1 | 3130 nM | -101.21 | -2.2 | 3130 nM | – | – | – | – | – | – | –
2 | Cc1cccc(CNC(=O)c2csc(N3CCN(c4ccc(C(F)(F)F)cc4)CC3)n2)c1 [Compound 7] | 320 nM | – | -97.93 | -1.1 | 880 nM | -93.28 | -1.1 | – | – | – | – | – | – | – | –
3 | Cc1cccc(CNC(=O)c2csc(N3CCN(c4cccc([N+](=O)[O-])c4)CC3)n2)c1 [Compound 8] | 360 nM | – | -84.72 | -1.1 | 500 nM | -115.29 | -2.1 | – | – | – | – | – | – | – | –
4 | Cc1cccc(CNC(=O)c2csc(N3CCN(c4ccccc4Br)CC3)n2)c1 [Compound 9] | 410 nM | – | -99.96 | -1.1 | 8810 nM | -81.02 | -1.3 | – | – | – | – | – | – | – | –
5 | Cc1cccc(CNC(=O)c2csc(N3CCN(c4cccc(Br)c4)CC3)n2)c1 [Compound 10] | 410 nM | – | -94.28 | -1.1 | 200 nM | -86.93 | -1.3 | – | – | – | – | – | – | – | –
6 | Cc1cccc(CNC(=O)c2csc(N3CCN(c4ccc(Cl)cn4)CC3)n2)c1 [Compound 11] | 460 nM | – | -99.36 | -1.1 | 3510 nM | -68.27 | -1.2 | – | good activity | – | – | – | – | – | –
7 | Cc1cccc(CNC(=O)c2csc(N3CCN(c4ccc(F)c(Cl)c4)CC3)n2)c1 [Compound 12] | 510 nM | – | -99.84 | -1.1 | 990 nM | -76.59 | -1.1 | – | – | – | – | – | – | – | –
8 | Cc1cc(CNC(=O)c2csc(N3CCN(c4cccc(C(F)(F)F)c4)CC3)n2)ccc1Cl [Compound 16] | 7.9 nM | – | – | – | 34.2 nM | – | – | – | – | -106.26 | -1.1 | -81.01 | -1.1 | – | –
9 | O=C(NCc1ccc2ccccc2c1)c1csc(N2CCN(c3cccc(C(F)(F)F)c3)CC2)n1 [Compound 17] | 11.9 nM | – | – | – | 40.7 nM | – | – | – | – | -92.05 | -1.1 | -93.35 | -1.1 | – | –
10 | O=C(NCc1cccc(COc2ccccc2)c1)c1csc(N2CCN(c3cccc(C(F)(F)F)c3)CC2)n1 [Compound 18] | 14.1 nM | – | – | – | 43.1 nM | – | – | – | – | -100.33 | -1.1 | -79.42 | -1.1 | – | –
11 | Cc1ccc(-c2cccc(CNC(=O)c3csc(N4CCN(c5cccc(C(F)(F)F)c5)CC4)n3)c2)cc1 [Compound 19] | 23.7 nM | – | – | – | 10.2 nM | – | – | – | – | -83.86 | -1.1 | -77.01 | -1.1 | – | –
12 | O=C(NCc1cccc(N2CCC2=O)c1)c1csc(N2CCN(c3cccc(C(F)(F)F)c3)CC2)n1 [Compound 20] | 63.1 nM | – | – | – | 10.8 nM | – | – | – | – | -96.26 | -1.1 | -81.94 | -1.2 | – | –
13 | O=C(NCc1nc(-c2ccccc2)no1)C1CCN(c2cc(-n3cncn3)ncn2)CC1 [NCGC00526793-01] | 35500 nM | – | – | – | – | – | – | – | – | – | – | – | – | -44.11 | -2.2
14 | Cc1cc(C)c(C)c([S+](=O)([O-])NCCC(=O)N2CCc3[nH]c(=O)c(C#N)cc3C2)c1C [NCGC00527311-01] | 28200 nM | – | – | – | – | – | – | – | – | – | – | – | – | -52.11 | -2.2
15 | COc1ccc(CCC(=O)N2CCc3[nH]c(=O)c(C#N)cc3C2)c(OC)c1OC [NCGC00527314-01] | 35500 nM | – | – | – | – | – | – | – | – | – | – | – | – | -47.14 | -2.4
16 | O=C(NCC(F)(F)F)c1cc(C2CCN(C(=O)c3cc(-c4ccco4)n[nH]3)CC2)n[nH]1 [NCGC00528999-01] | 14100 nM | – | – | – | – | – | – | – | – | – | – | – | – | -59.29 | -2.4
17 | CC(O)c1ccc(CCNC(=O)C(=O)Nc2cc3c4c(c2)CC(=O)N4CCC3)s1 (stereo not drawn) [NCGC00529385-01] | 11200 nM | – | – | – | – | – | – | – | – | – | – | – | – | -31.52 | -2.2
18 | Cc1cc(=O)[nH]c(N2CCC(NC(=O)NCc3ccco3)CC2)n1 [NCGC00530028-01] | 20000 nM | – | – | – | – | – | – | – | – | – | – | – | – | -57.15 | -2.2
19 | Cc1cc(OC2CN(C(=O)c3cc(-c4ccc(F)cc4)n[nH]3)C2)n2ncnc2n1 [NCGC00531207-01] | 14100 nM | – | – | – | – | – | – | – | – | – | – | – | – | -93.27 | -2.3
20 | Cc1cccc(CNC(=O)c2csc(N3CCN(c4ccc(C(F)(F)F)cn4)CC3)n2)c1 [NCGC01210237-01] | 730 nM | – | -94.33 | -1.1 | 3130 nM | -106.55 | -1.3 | – | – | – | – | – | – | – | –
21 | Cc1cccc(CNC(=O)c2csc(N3CCN(c4cc(C(F)(F)F)nc5ccccc45)CC3)n2)c1 [NCGC01210239-01] | 810 nM | – | -79.44 | -1.1 | 9880 nM | -51.72 | -2.4 | – | – | – | – | – | – | – | –
22 | Cc1cccc(CNC(=O)c2csc(N3CCN(c4ccc(C5(C#N)CC5)cc4)CC3)n2)c1 [NCGC01210256-01] | 14500 nM | – | -66.81 | -1.2 | 15700 nM | -71.00 | -1.4 | – | – | – | – | – | – | – | –
23 | Cc1cccc(CNC(=O)c2csc(N3CCN(c4cccc(C(F)(F)F)n4)CC3)n2)c1 [NCGC01210535-01] | 580 nM | – | -96.11 | -1.1 | 7850 nM | -90.86 | -1.1 | – | – | – | – | – | – | – | –
24 | Cc1cccc(CNC(=O)c2csc(N3CCN(c4ccc(C5(C#N)CCCC5)cc4)CC3)n2)c1 [NCGC01210598-01] | 1020 nM | – | -62.83 | -1.2 | 3930 nM | -104.17 | -2.1 | – | – | – | – | – | – | – | –
25 | Cc1cccc(CNC(=O)c2csc(N3CCN(c4ccc(C5(C#N)CCCCC5)cc4)CC3)n2)c1 [NCGC01210611-01] | 730 nM | – | -77.35 | -1.2 | 620 nM | -33.71 | -1.2 | – | – | – | – | – | – | – | –
26 | Cc1cccc(CNC(=O)c2csc(N3CCN(c4ncccc4C(F)(F)F)CC3)n2)c1 [NCGC01210654-01] | 1020 nM | – | -95.69 | -1.1 | 35100 nM | -81.56 | -2.2 | – | – | – | – | – | – | – | –
27 | Cc1cccc(CNC(=O)c2csc(N3CCN(c4cccc(C#N)c4)CC3)n2)c1 [NCGC01210664-01] | 1020 nM | – | -83.70 | -1.1 | 11100 nM | -103.93 | -2.1 | – | – | – | – | – | – | – | –
